Results published in patent publication US7399608B2, “Microbial detection and quantification” (Kimberly-Clark Worldwide, Inc., priority 2003, dated 2008).

Columns and labels:
[1] = tested on: bacteria in aged chicken juice; assay: Dye solution dropped onto aged chicken juice on SCOTT paper towel (comparative examples); settings: comparative dye solution dropped onto aged chicken juice on SCOTT paper towel
[2] = tested on: microbes in aged female human urine; assay: N-methylmerocyanine coated onto kitchen paper towel, aged urine
[3] = tested on: budgerigar feces suspension; assay: N-methyl merocyanine coated paper towel, pet bird feces suspension; settings: Atlanta city domestic tap water
Protocol: Budgerigar feces was collected from a caged pet budgie, and shaken in approximately 10 ml of Atlanta city domestic tap water. N-methyl merocyanine dye of structure 33 above was synthesized as described above.

Bleach indicator test = type: physicochemical; settings: mixture with Reichardt's dye coated on SCOTT towel
[4] = tested on: bacteria in aged chicken juice; assay: N-docosyl-merocyanine dye coated onto cotton fabric, aged chicken juice; settings: 47 mg in 10 g dimethylformamide, supernatant on woven cotton

For `O=C([O-])C1=NN(c2ccc(S(=O)(=O)[O-])cc2)C(=O)C1N=Nc1ccc(S(=O)(=O)[O-])cc1.[Na+].[Na+].[Na+]` (centres unmarked) [Cl Acid Yellow 23, tartrazine], the “color change on aged chicken juice” value [1] was “No color changes were observed”.

In the case of `O=C1/C(=C2\Nc3ccc(S(=O)(=O)[O-])cc3C2=O)Nc2ccc(S(=O)(=O)[O-])cc21.[Na+].[Na+]` [Cl Acid Blue 74, Indigo Carmine], the “color change on aged chicken juice” value [1] is reported as “No color changes were observed”.

For `COc1cc(/C=C/c2cc[n+](C)cc2)ccc1[O-]` [N-methyl merocyanine dye], the “color change with aged urine filtered through 0.2 micron filter” value ([2]; urine stored 24 hours at 37° C.) was “did not cause a color change”, the “color change with aged urine filtered through 0.2 micron filter” value ([2]; urine stored 8 days at room temperature) was “did not cause a color change” and the “color of coated towel with tap water control” value [3] was “the area remained orange”.

For `Cc1ccc(Nc2ccc(Nc3ccc(C)cc3S(=O)(=O)[O-])c3c2C(=O)c2ccccc2C3=O)c(S(=O)(=O)[O-])c1.[Na+].[Na+]` [Cl Acid Green 25], the “color change on aged chicken juice” value [1] was “No color changes were observed”.

In the case of `CCN(CC)c1ccc2c(-c3ccc(S(=O)(=O)O)cc3S(=O)(=O)[O-])c3ccc(=[N+](CC)CC)cc-3oc2c1` [Cl Acid Red 52, sulforhodamine B], the “color change on aged chicken juice” value [1] is reported as “No color changes were observed”.

With `Cc1ccc(Nc2ccc(Nc3ccc(C)cc3S(=O)(=O)[O-])c3c2C(=O)c2c(O)ccc(O)c2C3=O)c(S(=O)(=O)[O-])c1.[Na+].[Na+]` [Cl Acid Green 41] the “color change on aged chicken juice” value [1] was “No color changes were observed”.

With `CC(=O)Nc1ccc(/N=N/c2c(N)ccc3cc(S(=O)(=O)[O-])cc(O)c23)c(S(=O)(=O)[O-])c1.[Na+].[Na+]` [Cl Acid Red 37] the “color change on aged chicken juice” value [1] was “No color changes were observed”.

For `Cc1cc(-c2cc(C)c(N)c(C)c2)cc(C)c1N` [TMB, reference compound], the “response of TMB to dilute bleach” value (Bleach indicator test) was “turning orange/yellow color”.

In the case of `CCCCCCCCCCCCCCCCCCCCCC[n+]1ccc(C=Cc2ccc(O)cc2)cc1.[Br-]`, the “color change of orange-yellow dye spots on cotton” value [4] is reported as “color change to very pale yellow”.
